System: AS4.3, AS8.2, AS8.4, and AU2.1 TCRs
Assay: CD69 upregulation with peptide-pulsed K562 cells expressing HLA-B*27:05
Format: cell-based, human
Settings: SKW-3 T cells expressing AS4.3, AS8.2, AS8.4, and AU2.1 TCRs; n = 3 biological replicates

| Sequence | T cell response (CD69 upregulation) when peptide presented by HLA-B*27:05-expressing K562 cells |
| --- | --- |
| LRQMLQAPH [MPP4^self] | robust T cell responses |
| GQVMVVAPR [RNASEH2B^self] | robust T cell responses |

— PMC10511244 (Nature, 2022)
